This is an account of results in article PMC6959544 (Bioorganic & medicinal chemistry, 2017).

One assay deals with hTRPV1 (Homo sapiens, UniProt Q8NER1). Put plainly: In vitro hTRPV1 antagonism: inhibition of activation by capsaicin. Format: cell-based. The note with it: hTRPV1 in CHO cells, capsaicin 100 nM, FLIPR.
The test system of assay [1] is capsaicin-induced hypothermia. Put plainly: Capsaicin-induced hypothermia. Format: in vivo. The note with it: data not shown.
In assay [2] the test system is CCI-induced cold allodynia (Bennett mouse model of neuropathic pain). In words: Analgesic activity on CCI-induced cold allodynia. The format is in vivo. The note with it: oral.

hTRPV1, sequence (Q8NER1 whole entry): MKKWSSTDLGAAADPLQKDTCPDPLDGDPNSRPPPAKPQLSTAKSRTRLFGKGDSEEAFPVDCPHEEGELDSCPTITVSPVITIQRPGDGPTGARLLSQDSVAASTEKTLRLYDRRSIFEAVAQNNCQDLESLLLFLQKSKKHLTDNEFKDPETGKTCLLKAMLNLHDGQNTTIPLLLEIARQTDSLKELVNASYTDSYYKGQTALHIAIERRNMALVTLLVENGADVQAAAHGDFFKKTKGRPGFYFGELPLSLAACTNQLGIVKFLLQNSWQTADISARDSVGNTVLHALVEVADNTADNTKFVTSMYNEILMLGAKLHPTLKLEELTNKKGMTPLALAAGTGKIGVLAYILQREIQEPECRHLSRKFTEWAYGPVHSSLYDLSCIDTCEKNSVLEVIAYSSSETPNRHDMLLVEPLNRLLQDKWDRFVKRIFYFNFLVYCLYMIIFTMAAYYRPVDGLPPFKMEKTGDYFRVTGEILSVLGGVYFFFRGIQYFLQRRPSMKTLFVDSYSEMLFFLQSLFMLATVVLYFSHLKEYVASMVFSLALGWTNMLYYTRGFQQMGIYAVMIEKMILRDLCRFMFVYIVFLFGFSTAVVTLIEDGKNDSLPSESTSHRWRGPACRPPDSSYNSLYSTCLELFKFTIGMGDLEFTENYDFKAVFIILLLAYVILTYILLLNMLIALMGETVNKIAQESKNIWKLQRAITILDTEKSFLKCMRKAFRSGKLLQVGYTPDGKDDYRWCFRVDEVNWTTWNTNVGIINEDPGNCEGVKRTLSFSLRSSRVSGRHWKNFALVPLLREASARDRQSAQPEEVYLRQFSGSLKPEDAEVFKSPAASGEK

As to “N-((6-(tert-Butyl)-2-(cyclohexyloxy)pyridin-3-yl)methyl)-2-(3-fluoro-4-(methylsulfonamido)phenyl)propanamide [Compound 21]”, the “hTRPV1 antagonism (in words)” value at hTRPV1 is “clear reduction in potency”.

Consider `C[C@H](C(=O)NCc1ccc(C(C)(C)C)nc1SC1CCCCC1)c1ccc(NS(C)(=O)=O)c(F)c1` [Compound 34S], for which the “capsaicin-induced hypothermia, % MPE” value worked out at 46 % MPE in assay [1] (3 mg/kg po) and 15 % MPE in assay [1] (10 mg/kg po). Also, in assay [2] (3 mg/kg), the “antiallodynic effect on cold allodynia, % MPE” value is listed as “greater than 50 % MPE”. Moreover, the “in vivo functional character (in words)” value in assay [2] (10 mg/kg) is on record as “partial agonism”. Also, the “antiallodynic activity (in words)” value in assay [2] (dose increased from 3 mg/kg to 10 mg/kg) is “decreased antiallodynic activity”.

Turning to “N-((6-(tert-Butyl)-2-(cyclopentyloxy)pyridin-3-yl)methyl)-2-(3-fluoro-4-(methylsulfonamido)phenyl)propanamide [Compound 20]”, the “hTRPV1 antagonism (in words)” value on hTRPV1 is “clear reduction in potency”.

Consider `CC(C(=O)NCc1ccc(C(C)(C)C)nc1OCc1ccc(F)cc1)c1ccc(NS(C)(=O)=O)c(F)c1` (centres unmarked) [Compound 23, N-((6-(tert-Butyl)-2-((4-fluorobenzyl)oxy)pyridin-3-yl)methyl)-2-(3-fluoro-4-(methylsulfonamido)phenyl)propanamide], for which the “hTRPV1 antagonism (in words)” value on hTRPV1 was “good antagonism”.
